According to patent US20230348418A1, “ISOINDOLINONE COMPOUNDS” (Monte Rosa Therapeutics, Inc., priority 2021, published 2023):
pIC50: −log10 of the molar value.

Legend:
CRBN-DDB1 = CRBN-DDB1 (Homo sapiens, UniProt Q96SW2); assay: HTRF binding of compounds to CRBN; conditions: read-out: HTRF Class (Cereblon binding, HTRF IC50)
Procedure, shortened: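 CRBN-DDB1 binding measured by HTRF displacement of a Cy5-labelled thalidomide-type probe; 10-point 1:3 compound series, 30 min at ambient temperature. IC50 from curve fitting; Ki from geometric-mean IC50 via Cheng-Prusoff.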

GSPT1 = GSPT1 (Homo sapiens, UniProt P15170+Q96SW2); assay: Immunofluorescence assay for GSPT1 degradation in CAL-51 cells (Example 10); assay type: cell-based; design: host or cells: CAL-51; conditions: 6 h, read-out: IF Class (GSPT1 degradation, DC50)
GSPT1, sequence (P15170 whole entry): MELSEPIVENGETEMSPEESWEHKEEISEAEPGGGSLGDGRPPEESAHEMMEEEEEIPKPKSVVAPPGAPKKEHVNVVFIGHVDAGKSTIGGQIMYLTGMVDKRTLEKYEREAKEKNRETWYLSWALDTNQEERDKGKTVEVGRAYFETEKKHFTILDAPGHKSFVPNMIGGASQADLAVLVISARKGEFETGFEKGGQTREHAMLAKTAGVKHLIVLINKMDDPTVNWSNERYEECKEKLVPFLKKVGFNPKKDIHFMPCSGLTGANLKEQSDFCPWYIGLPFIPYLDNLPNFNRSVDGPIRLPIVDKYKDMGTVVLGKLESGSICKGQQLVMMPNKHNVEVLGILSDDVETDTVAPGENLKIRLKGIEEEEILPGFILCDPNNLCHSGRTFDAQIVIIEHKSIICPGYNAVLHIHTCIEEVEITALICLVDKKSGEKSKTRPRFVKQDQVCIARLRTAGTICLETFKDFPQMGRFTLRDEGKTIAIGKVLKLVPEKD
GSPT1, sequence (Q96SW2 whole entry): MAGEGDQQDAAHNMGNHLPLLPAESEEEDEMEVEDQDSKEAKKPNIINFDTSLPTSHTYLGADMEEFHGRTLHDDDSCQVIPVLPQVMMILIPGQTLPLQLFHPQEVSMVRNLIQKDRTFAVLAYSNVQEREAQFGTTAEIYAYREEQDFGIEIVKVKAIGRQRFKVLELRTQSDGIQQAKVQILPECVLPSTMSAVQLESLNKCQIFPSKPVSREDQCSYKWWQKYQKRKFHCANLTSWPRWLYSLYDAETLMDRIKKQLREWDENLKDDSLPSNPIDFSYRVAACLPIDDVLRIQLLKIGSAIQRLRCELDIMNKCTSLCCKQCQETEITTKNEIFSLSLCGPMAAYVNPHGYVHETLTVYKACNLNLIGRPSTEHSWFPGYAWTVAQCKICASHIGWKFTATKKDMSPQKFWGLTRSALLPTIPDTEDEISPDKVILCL
GSPT1, sequence (Q16531 2-1140 partner limits assumed): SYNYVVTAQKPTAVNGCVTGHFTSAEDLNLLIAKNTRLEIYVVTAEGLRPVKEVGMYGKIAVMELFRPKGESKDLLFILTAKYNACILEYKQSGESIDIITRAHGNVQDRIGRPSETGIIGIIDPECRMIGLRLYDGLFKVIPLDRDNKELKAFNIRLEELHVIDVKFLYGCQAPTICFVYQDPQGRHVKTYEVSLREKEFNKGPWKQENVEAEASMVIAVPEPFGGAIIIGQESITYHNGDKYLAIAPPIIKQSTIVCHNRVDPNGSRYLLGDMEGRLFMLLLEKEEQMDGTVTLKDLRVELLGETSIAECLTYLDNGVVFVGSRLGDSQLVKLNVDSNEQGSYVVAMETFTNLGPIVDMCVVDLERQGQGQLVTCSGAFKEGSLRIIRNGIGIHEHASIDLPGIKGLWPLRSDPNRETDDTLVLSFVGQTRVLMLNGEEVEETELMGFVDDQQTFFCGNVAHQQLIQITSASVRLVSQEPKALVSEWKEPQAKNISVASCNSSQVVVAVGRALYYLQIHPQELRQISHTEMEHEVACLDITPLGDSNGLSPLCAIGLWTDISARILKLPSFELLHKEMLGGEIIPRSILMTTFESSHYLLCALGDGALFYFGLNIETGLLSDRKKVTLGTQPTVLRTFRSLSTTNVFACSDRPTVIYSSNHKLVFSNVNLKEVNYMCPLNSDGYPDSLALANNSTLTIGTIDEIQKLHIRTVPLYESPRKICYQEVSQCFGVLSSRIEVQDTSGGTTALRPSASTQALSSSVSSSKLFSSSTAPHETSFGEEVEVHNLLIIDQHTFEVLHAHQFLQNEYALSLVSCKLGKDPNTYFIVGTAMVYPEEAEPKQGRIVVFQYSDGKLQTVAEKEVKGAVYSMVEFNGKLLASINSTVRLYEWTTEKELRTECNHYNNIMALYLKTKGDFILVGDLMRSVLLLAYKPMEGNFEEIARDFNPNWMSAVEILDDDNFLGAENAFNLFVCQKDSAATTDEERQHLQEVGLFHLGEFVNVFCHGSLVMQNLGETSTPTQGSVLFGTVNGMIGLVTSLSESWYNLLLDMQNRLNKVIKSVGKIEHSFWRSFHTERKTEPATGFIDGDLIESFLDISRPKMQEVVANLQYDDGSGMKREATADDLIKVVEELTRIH
Procedure: The representative compounds were tested in an immunofluorescence assay for their activity to degrade GSPT1. […] Compounds were stored at 10 mM DMSO stocks. […] Cells were subsequently rinsed with PBS and fixed in 10% Formalin solution (50 μl, Sigma HT5011)) for 20 mins at room temperature. […] Following three further PBS washes, 50 μL blocking buffer (1% BSA, Sigma A4503, in PBS) was added for 45 min for signal-to noise reduction. Primary antibody (human GSPT1, Sigma HPA052488) was diluted in blocking buffer (dil.1/300, 35 μL/well) and incubated with the cells overnight at 4° C. […] After three final PBS washes, samples were conserved in 100 μL PBS in the dark, until measurement. Image acquisition was performed on the Operetta High-Content Imager (Perkin-Elmer). […] For the determination of GSPT1 DC50 values, a custom algorithm implemented in the PerkinElmer image analysis software Harmony-Acapella® was developed. After user-defined setting of adjustment parameters, the analysis was run identically without human intervention for all image fields.
DAPI staining of the nuclei was used to determine the location of cells using standard nuclei detection modules. Segmentation artifacts were removed by threshold-based filters for area, roundness and intensity. The outline of the cells was determined analogously from the sum of the normalized, smoothed DAPI and Actin channel, starting from each nucleus. […] GSPT1 degradation (DC50) was calculated after normalization to controls and data import in CDD vault Database, using non-linear regression.

CRBN-DDB1, sequence (Q96SW2 whole entry): as the sequence (Q96SW2 whole entry) above
CRBN-DDB1, sequence (Q16531 whole entry partner): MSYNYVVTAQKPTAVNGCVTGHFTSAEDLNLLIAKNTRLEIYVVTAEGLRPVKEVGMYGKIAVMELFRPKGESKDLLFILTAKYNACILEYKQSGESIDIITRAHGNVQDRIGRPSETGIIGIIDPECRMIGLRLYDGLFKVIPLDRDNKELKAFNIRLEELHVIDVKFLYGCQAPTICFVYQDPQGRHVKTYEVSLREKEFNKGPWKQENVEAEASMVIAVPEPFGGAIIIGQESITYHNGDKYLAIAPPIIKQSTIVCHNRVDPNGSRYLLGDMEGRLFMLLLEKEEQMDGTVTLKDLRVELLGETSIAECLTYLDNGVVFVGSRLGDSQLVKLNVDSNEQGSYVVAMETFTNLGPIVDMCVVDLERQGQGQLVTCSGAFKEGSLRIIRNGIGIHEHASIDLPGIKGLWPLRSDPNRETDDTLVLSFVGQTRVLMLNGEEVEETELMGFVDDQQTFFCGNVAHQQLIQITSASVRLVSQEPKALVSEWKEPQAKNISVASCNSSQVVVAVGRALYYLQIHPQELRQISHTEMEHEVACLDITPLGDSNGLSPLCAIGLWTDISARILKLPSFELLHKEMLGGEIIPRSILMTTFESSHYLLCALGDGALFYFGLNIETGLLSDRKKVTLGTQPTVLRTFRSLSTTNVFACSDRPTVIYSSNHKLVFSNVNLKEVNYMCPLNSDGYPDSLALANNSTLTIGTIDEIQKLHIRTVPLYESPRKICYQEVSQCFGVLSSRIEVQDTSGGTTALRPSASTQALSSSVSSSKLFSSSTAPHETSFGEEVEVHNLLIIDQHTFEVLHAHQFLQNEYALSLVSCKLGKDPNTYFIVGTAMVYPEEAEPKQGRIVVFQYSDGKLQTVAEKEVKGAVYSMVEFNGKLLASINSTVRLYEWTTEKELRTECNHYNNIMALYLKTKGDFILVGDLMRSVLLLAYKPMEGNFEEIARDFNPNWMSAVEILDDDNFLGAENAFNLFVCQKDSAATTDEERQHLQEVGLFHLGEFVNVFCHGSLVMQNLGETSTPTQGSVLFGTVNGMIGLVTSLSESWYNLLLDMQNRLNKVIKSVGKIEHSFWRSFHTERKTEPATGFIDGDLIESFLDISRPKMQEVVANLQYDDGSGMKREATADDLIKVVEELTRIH

pIC50 (CRBN-DDB1)	DC50 (GSPT1) [nM]	Structure (SMILES)
> 7.00	> 300	O=C1CCC(N2Cc3ccc(COC(=O)Nc4cc(OC(F)F)c(F)cc4F)cc3C2=O)C(=O)N1 (stereo not shown) [Compound 218, (2-(2,6-dioxopiperidin-3-yl)-3-oxoisoindolin-5-yl)methyl(5-(difluoromethoxy)-2,4-difluorophenyl) carbamate]
> 7.00	> 300	CCc1ccc(F)c(NC(=O)OCc2ccc3c(c2)C(=O)N(C2CCC(=O)NC2=O)C3)c1 (stereo not shown) [Compound 210, (2-(2,6-dioxopiperidin-3-yl)-3-oxoisoindolin-5-yl)methyl (5-ethyl-2-fluorophenyl)carbamate]
> 7.00	> 300	O=C1CCC(N2Cc3ccc(COC(=O)Nc4cc(F)cc5c4OCC5)cc3C2=O)C(=O)N1 (stereo not shown) [Compound 187, (2-(2,6-dioxopiperidin-3-yl)-3-oxoisoindolin-5-yl)methyl(5-fluoro-2,3-dihydrobenzofuran-7-yl) carbamate]

The next lines start with the molecule.

Structure (SMILES)	pIC50 (CRBN-DDB1)	DC50 (GSPT1) [nM]
O=C1CCC(N2Cc3ccc(COC(=O)Nc4ccc(C5CCC5)cn4)cc3C2=O)C(=O)N1 (stereo not shown) [Compound 181, (2-(2,6-dioxopiperidin-3-yl)-3-oxoisoindolin-5-yl)methyl (5-cyclobutylpyridin-2-yl)carbamate]	6.00 to 7.00	30 to 300
O=C1CCC(N2Cc3ccc(COC(=O)N[C@H]4C[C@@H](c5ccccc5)C4)cc3C2=O)C(=O)N1 (stereo partly shown) [Compound 158, (2-(2,6-dioxopiperidin-3-yl)-3-oxoisoindolin-5-yl)methyl ((1s,3s)-3-phenylcyclobutyl)carbamate]	> 7.00	> 300
CC(C)(C)N1CC(NC(=O)OCc2ccc3c(c2)C(=O)N(C2CCC(=O)NC2=O)C3)C1 (stereo not shown) [Compound 172, (2-(2,6-dioxopiperidin-3-yl)-3-oxoisoindolin-5-yl)methyl (1-(tert-butyl)azetidin-3-yl)carbamate]	6.00 to 7.00	> 300
CC(C)c1ccc(F)c(NC(=O)OCc2ccc3c(c2)C(=O)N(C2CCC(=O)NC2=O)C3)c1 (stereo not shown) [Compound 205, (2-(2,6-dioxopiperidin-3-yl)-3-oxoisoindolin-5-yl)methyl (2-fluoro-5-isopropylphenyl)carbamate]	6.00 to 7.00	30 to 300
O=C1CCC(N2Cc3ccc(COC(=O)N[C@H]4C[C@H](c5ccccc5)C4)cc3C2=O)C(=O)N1 (stereo partly shown) [Compound 159, (2-(2,6-dioxopiperidin-3-yl)-3-oxoisoindolin-5-yl)methyl((1r,3r)-3-phenylcyclobutyl)carbamate]	6.00 to 7.00	30 to 300
